Measurements taken from patent US20250213700A1, “COMPOUNDS, COMPOSITIONS, AND METHODS FOR CELL-SPECIFIC PHARMACOLOGY” (Duke University, priority 2022, published 2025).

Test system: endogenous AMPARs
Experiment: all-optical cultured-neuron assay of AMPAR-dependent synaptic transmission
Type: cell-based, rat
Conditions: DW=Rx50/HTL50
Protocol: Cultured neuronal assays: Preparation of hippocampal cultures: Mixed glial and neuronal cultures were prepared from the hippocampus of postnatal day 0 to 1 Sprague-Dawley rat pups. Separate pools of dissociated cells were transfected via electroporation (LONZA, V4SP-3096) with plasmid constructs, and depending on assay directives, either plated individually or mixed with a different pool of electroporated cells after a 10 min recovery period. Cells were cultured on coverslips (Deckglaser) pre-treated with high molecular weight poly-D-lysine (Sigma, P7405; 0.05 mg/mL) in 24-well plates and maintained in NbActiv4 (BrainBits, Nb4-500) at 37 C, 5% CO2. Media was changed by half at DIV3 or 4 and then weekly thereafter; experiments were performed between DIV16 to DIV18.

**Q.** Which “widening of Dosing Window vs DART.1 reagent” value does the source give for COc1cc(CCCCl)ccc1CCOCCNC(=O)c1ccc(CNC(=O)CCOCCOCCOCCOCCOCCOCCOCCOCCOCCOCCOCCOCCOCCOCCOCCOCCOCCOCCOCCOCCOCCOCCOCCOCCOCCOCCOCCOCCOCCOCCOCCOCCOCCOCCOCCOCCn2cc(COCCOCCOCCOCCOCCOCCNC(=O)CCCn3c(=O)c(=O)[nH]c4cc([N+](=O)[O-])c(-n5ccnc5)cc43)nn2)cc1 [YM90K.1DART.2] here?
**A.** 10 fold

**Q.** What about the “DW (t=15 m)” value (ddHTP vs +HTP cells, 15 min) of the same molecule?
**A.** 300
